# From paper PMC6560442, “Biochemical Properties of Polyphenol Oxidases from Ready-to-Eat Lentil (Lens culinaris Medik.) Sprouts and Factors Affecting Their Activities: A Search for Potent Tools Limiting Enzymatic Browning” (Foods, 2019)
# What was measured:
# PPO II = tested on: T1, PPO II; assay: quinone formation, absorbance at […] nm, Lineweaver-Burk; format: biochemical, Lens culinaris; conditions: TRIS-HCl 50 mM pH 6.5 (standard assay); 1-30 mM substrate; partially purified enzyme
# T1 construct: second isoenzyme
# PPO I = tested on: T2, PPO I; assay: as above; format: biochemical, Lens culinaris; conditions: TRIS-HCl 50 mM pH 6.5 (standard assay); 1-30 mM substrate; partially purified enzyme
# T2 construct: first isoenzyme
Compound,Km (PPO II),Km (PPO I)
O=C(O)c1cc(O)c(O)c(O)c1 [Gallic acid],5 ± 0.23 mM,2.25 ± 0.1 mM
Cc1ccc(O)c(O)c1 [4-methylcatechol],3.4 ± 0.15 mM,3 ± 0.14 mM
Oc1ccccc1O [Catechol],0.94 ± 0.04 mM,1.76 ± 0.08 mM
O=C(O)/C=C/c1ccc(O)c(O)c1 [Caffeic acid],–,3.81 ± 0.17 mM
